Results as given in publication PMC7044277 (Nature Communications, 2020).
Values joined by “and” are separate entries in the source; they are usually repeats but may differ in a detail not shown here. Identical values can stand only once.

Legend:
Assay type in all cases: cell-based
320 non-olfactory GPCRs [1] = target: T1, 320 non-olfactory GPCRs (Homo sapiens, UniProt Q02643)
T1 construct: expressed in transfected cells; host or cells: HTLA cells

320 non-olfactory GPCRs [2] = target: T2, 320 non-olfactory GPCRs (Homo sapiens, UniProt P41180)
T2 construct: expressed in transfected cells; host or cells: HTLA cells

320 non-olfactory GPCRs [3] = target: T3, 320 non-olfactory GPCRs (Homo sapiens, UniProt Q96LB2); details: receptor MRGPRX1; replicate values, Fig_4g
T3 construct: expressed in transfected cells; host or cells: HTLA cells

320 non-olfactory GPCRs [4] = target: T4, 320 non-olfactory GPCRs (Homo sapiens, UniProt P29274)
T4 construct: expressed in transfected cells; host or cells: HTLA cells
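Throughout, for Fold of Basal: compound tested at 1 µM final concentration.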
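Throughout, for GPCRome agonism screen response: fold over basal response of each receptor without drug.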

T2 sequence (P41180 20-1078): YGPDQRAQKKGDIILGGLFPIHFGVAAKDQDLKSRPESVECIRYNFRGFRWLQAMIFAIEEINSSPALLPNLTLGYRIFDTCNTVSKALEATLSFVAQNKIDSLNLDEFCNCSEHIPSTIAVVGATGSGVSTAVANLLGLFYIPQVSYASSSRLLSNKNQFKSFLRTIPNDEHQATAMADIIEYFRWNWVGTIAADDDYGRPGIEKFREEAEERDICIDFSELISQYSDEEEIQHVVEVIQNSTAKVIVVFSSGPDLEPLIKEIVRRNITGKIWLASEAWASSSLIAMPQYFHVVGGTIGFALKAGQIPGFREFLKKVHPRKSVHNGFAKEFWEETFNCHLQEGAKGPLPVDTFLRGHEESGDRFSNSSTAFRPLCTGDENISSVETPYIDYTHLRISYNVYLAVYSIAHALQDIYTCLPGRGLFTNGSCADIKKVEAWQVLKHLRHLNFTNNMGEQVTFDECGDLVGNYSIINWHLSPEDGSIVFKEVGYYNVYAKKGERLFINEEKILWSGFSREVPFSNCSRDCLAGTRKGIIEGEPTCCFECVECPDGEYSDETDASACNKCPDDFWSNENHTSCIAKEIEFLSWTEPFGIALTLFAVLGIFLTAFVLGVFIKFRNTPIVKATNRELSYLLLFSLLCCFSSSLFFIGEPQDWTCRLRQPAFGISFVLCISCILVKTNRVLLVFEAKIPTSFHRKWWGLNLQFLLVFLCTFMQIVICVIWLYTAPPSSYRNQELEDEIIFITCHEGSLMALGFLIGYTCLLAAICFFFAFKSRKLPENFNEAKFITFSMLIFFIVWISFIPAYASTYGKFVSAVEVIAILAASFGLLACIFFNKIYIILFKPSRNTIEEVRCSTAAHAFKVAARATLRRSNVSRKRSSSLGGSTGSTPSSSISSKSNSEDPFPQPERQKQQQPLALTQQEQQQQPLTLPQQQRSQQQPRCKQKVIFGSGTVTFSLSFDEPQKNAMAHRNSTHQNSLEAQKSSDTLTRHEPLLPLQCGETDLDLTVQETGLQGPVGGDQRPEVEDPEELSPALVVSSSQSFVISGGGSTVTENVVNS
T1 sequence (Q02643 23-423): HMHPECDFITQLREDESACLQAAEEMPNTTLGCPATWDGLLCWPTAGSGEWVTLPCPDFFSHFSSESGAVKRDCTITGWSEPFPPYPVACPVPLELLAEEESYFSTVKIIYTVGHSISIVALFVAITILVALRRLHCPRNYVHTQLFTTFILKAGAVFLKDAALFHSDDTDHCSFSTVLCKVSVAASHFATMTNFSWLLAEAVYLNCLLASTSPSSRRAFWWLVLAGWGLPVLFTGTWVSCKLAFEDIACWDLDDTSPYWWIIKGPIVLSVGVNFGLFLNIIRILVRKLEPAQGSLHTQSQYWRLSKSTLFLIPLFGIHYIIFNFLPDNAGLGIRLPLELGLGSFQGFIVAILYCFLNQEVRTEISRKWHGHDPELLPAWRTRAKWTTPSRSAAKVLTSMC
T3 sequence (Q96LB2 whole entry): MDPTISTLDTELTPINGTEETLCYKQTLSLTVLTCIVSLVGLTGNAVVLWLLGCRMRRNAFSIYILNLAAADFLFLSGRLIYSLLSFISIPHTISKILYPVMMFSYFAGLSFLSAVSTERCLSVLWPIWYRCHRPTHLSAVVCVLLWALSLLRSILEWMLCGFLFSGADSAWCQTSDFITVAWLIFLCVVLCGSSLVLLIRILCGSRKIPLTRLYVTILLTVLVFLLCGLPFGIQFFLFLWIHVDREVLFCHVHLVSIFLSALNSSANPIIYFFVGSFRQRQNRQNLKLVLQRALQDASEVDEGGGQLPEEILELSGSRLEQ
T4 sequence (P29274 whole entry): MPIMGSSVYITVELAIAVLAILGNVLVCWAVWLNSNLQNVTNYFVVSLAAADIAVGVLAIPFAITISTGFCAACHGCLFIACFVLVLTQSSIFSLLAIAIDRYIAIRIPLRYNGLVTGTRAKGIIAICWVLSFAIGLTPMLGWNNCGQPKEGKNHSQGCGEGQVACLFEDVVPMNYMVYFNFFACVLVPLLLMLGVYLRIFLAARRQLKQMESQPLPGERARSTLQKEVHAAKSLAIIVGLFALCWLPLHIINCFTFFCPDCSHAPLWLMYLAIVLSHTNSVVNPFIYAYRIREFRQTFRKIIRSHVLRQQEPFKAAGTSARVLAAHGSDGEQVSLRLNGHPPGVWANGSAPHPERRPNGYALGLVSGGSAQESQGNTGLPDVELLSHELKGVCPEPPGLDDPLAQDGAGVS

For CCOc1cccc2cc(C(C)NCC3(O)CCCCC3)oc12 (stereo not shown) [O4LE6], the “Fold of Basal” value (320 non-olfactory GPCRs [1]) was 1.559 and 1.547 and 1.735 and 1.472, the “Fold of Basal” value (320 non-olfactory GPCRs [2]) was 0.9783 and 1.253 and 1.231 and 1.397 and the “GPCRome agonism screen response” value (320 non-olfactory GPCRs [3]) was 1.163 and 1.233 and 1.345 and 0.8039. The “Fold of Basal” value (320 non-olfactory GPCRs [4]) was 0.5279 and 0.6435 and 0.5264 and 0.5735.
